The numbers were not newly measured in publication PMC7366343 (Journal of the American Chemical Society, 2019), which cites them from elsewhere.

In one series the target is hTDO (Homo sapiens, UniProt P48775). The note with it: read-out: reported IC50 for hTDO.

Each structure is given as a SMILES string.

Sequence of hTDO (P48775 whole entry): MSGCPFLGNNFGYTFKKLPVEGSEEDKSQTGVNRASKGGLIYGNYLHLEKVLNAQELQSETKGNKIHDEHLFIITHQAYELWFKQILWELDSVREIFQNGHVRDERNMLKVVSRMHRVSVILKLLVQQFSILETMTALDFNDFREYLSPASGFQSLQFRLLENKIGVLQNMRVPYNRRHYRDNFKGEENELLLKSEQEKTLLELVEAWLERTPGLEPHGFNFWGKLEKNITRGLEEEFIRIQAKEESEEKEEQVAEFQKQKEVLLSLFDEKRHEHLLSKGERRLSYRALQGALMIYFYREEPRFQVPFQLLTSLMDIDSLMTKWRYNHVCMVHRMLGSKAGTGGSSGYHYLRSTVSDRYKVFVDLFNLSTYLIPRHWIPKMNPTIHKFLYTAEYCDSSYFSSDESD

A word on the IC50: it is the point on the concentration scale where inhibition reaches its midpoint. In the case of `O=C1CC(c2c[nH]c3ccc(F)cc23)C(=O)N1` (centres unmarked) [IPD, 3-(5-Fluoro-1H-indol-3-yl)pyrrolidine-2,5-dione], the blood-brain barrier crossing entry was “able to cross the blood-brain barrier”. Also, on hTDO, the half-inhibitory concentration (IC50) was greater than 50 µM.
